The values that follow come from patent publication EP1192131B1, “METHOD OF INHIBITING AMYLOID PROTEIN AGGREGATION AND IMAGING AMYLOID DEPOSITS USING ISOINDOLINE DERIVATIVES” (Warner-Lambert Company LLC, priority 1999, dated 2000).

Values joined by “and” are separate entries in the source; they are usually repeats but may differ in a detail not shown here. Equal values may be shown once.

Sequence of Aβ(1-40) (P05067 672-711): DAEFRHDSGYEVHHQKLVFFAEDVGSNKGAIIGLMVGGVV

One assay deals with Aβ(1-40) (Homo sapiens, UniProt P05067). Put plainly: BASSR (Beta-Amyloid Self-Seeding Radioassay), inhibition of self-seeded amyloid fibril growth. The format is biochemical. Also on record: Soluble Aβ(1-40) peptide (Bachem, Torrance, CA); purchased Bachem, Torrance, CA. To be noted: 30 µM soluble Aβ (1-40) + 125I-labeled Aβ(1-40), 37°C, 3 to 5 hours; several values in a cell = repeat values; letter in parentheses = lot of compound (no letter = Lot P); (ppt), (v-shape) flags; read-out: BASSR IC50 (converted). As for the experimental part:
BASSR (Beta-Amyloid Self-Seeding Radioassay)
An assay for inhibitors of self-seeded amyloid fibril growth
Assay Buffer - 50 mM sodium phosphate, pH 7.5, 100 mM NaCl, 0.02% NaN3, 1 M urea (filter and store at 4°C)
Soluble Aβ(1-40) peptide (Bachem, Torrance, CA) - 2.2 mg/mL in deionized H2O (stored in aliquots at -20°C, keep on ice when thawed) will self-seed after 1 week storage. Typically, the solution should be stored until no lag phase is seen in the assay.
^125I-labeled Aβ (1-40) - 150K-350K cpm/µL in 100% acetonitrile -0.1% trifluoroacetic acid (TFA) -1% β-mercaptoethanol (aliquots stored at -20°C) ^125I-labeled Aβ(1-40) can be made in accordance with the procedure set forth by H. LeVine, III in Neurobiol. Aging, 16:755 (1995), which is hereby incorporated by reference, or this reagent may be purchased from Amersham, Arlington Heights, Illinois.
Final assay conditions: 30 µM soluble Aβ (1-40) in deionized water in assay buffer + 20-50K cpm ^125I-labeled Aβ(1-40) per assay. Compound to be tested is dissolved in dimethylsulfoxide (DMSO), typically 5-50 mM stock, such that the final concentration of DMSO is <1% v/v in the assay.
Assay: Reaction mixture for 50 assays (on ice) is comprised of 0.1-0.2 µL of ^125I-labeled A^125I-labeled Aβ(1-40) + 1 µL of soluble Aβ (1-40) + 13.5 µL assay buffer per assay. The following are the amounts of the components of the reaction mixture sufficient for 50 assay wells. 5-10 µL ^125I-labeled Aβ (1-40) dried down 675 µL assay buffer 50 µL soluble Aβ (1-40)
• 1) Prepare reaction mixture above by mixing components and storing on ice. • 2) Pipet 14.5 µL of reaction mixture into each of 50 wells on a polypropylene U-bottom 96-well microtiter plate on ice (Costar 3794). • 3) Add 1.7 µL, of diluted compound to be tested to each well in a column of eight, including solvent control. Serial 3-fold dilutions from 1 mM (100 µM final) in assay buffer -urea = 7 dilutions + zero. Each 96-well plate can therefore accommodate 11 samples + 1 Congo Red control (0.039-5 µM final in 2-fold steps). • 4) Seal the plate with aluminum film (Beckman 538619) and incubate for 10 minutes on ice. • 5) Raise the temperature to 37°C and incubate for 3 to 5 hours (depending on the lot of the peptide). • 6) Remove the aluminum film and add 200 µL/well of ice cold assay buffer with urea, collecting the radiolabeled fibrils by vacuum filtration through 0.2 µm pore size GVWP filters in 96-well plates (Millipore MAGV N22, Bedford, MA). Determine the radioactivity of the filters using standard methods well-known to those skilled in the art.
As to “2-[2-(3,4-Dimethylphenyl)-2,3-dihydro-1H-isoindol-5-ylamino]benzoic acid [Example 9]”, the half-inhibitory concentration (IC50) was over 100 µM.

On to “2-[2-(3-chlorophenyl)-2,3-dihydro-1H-isoindol-5-ylamino]benzoic acid [Example 7]”, for which the IC50 is 90 µM and 80 µM and > 100 µM.

Turning to “2-[2-(4-chlorophenyl)-2,3-dihydro-1H-isoindol-5-ylamino]benzoic acid [Example 8]”, the IC50 was over 100 µM.

For the compound `O=C(O)c1ccccc1Nc1ccc2c(c1)CN(c1ccc(Cl)c(Cl)c1)C2` [Example 4, 2-[2-(3,4-Dichlorophenyl)-2,3-dihydro-1H-isoindol-5-ylamino]benzoic acid], the IC50 was 12 µM and 11 µM (2×) and 15 µM (3×).

As for `COc1cc(Nc2ccc3c(c2)CN(c2ccc(Cl)c(Cl)c2)C3)c(C(=O)O)cc1[N+](=O)[O-]` [Example 6, 2-[2-(3,4-Dichlorophenyl)-2,3-dihydro-1H-isoindol-5-ylamino]-4-methoxy-5-nitro-benzoic acid], the IC50 was 7 µM (2×) and 12 µM and 4 µM and 5 µM.

Consider `Cc1ccc(N2Cc3ccc(Nc4ccc([N+](=O)[O-])cc4C(=O)O)cc3C2)cc1C` [Example 12, 2-[2-(3,4-Dimethyl-phenyl)-2,3-dihydro-1H-isoindol-5-ylamino]-5-nitro-benzoic acid], for which the IC50 was over 100 µM.

Regarding `O=C(O)c1cc([N+](=O)[O-])ccc1Nc1ccc2c(c1)CN(c1ccc(Cl)cc1)C2` [Example 15, 2-[2-(4-Chloro-phenyl)-2,3-dihydro-1H-isoindol-5-ylamino]-5-nitro-benzoic acid], the IC50 is over 100 µM.

For `Clc1ccc(N2Cc3ccc(Nc4ccccc4-c4nnn[nH]4)cc3C2)cc1Cl` [Example 16, [2-(3,4-Dichloro-phenyl)-2,3-dihydro-1H-isoindol-5-yl]-[2-(1H-tetrazol-5-yl)-phenyl]-amine], the IC50 was over 100 µM.

Take `Nc1ccc(Nc2ccc3c(c2)CN(c2ccc(Cl)c(Cl)c2)C3)c(C(=O)O)c1` [Example 17, 5-Amino-2-[2-(3,4-dichloro-phenyl)-2,3-dihydro-1H-isoindol-5-ylamino]-benzoic acid]: the IC50 was 20 µM and 80 µM.

Turning to `O=C(O)c1cc([N+](=O)[O-])ccc1Nc1ccc2c(c1)CN(c1ccccc1)C2` [Example 18, 5-Nitro-2-(2-phenyl-2,3-dihydro-1H-isoindol-5-ylamino)-benzoic acid], the IC50 was 7 µM and 4 µM and 5 µM.

Turning to `O=C(O)c1cc([N+](=O)[O-])ccc1Nc1ccc2c(c1)CN(c1cccc(F)c1)C2` [Example 20, 2-[2-(3-Fluoro-phenyl)-2,3-dihydro-1H-isoindol-5-ylamino]-5-nitro-benzoic acid], the IC50 was over 100 µM.

On to `COc1cccc(N2Cc3ccc(Nc4ccc([N+](=O)[O-])cc4C(=O)O)cc3C2)c1` [Example 21, 2-[2-(3-Methoxy-phenyl)-2,3-dihydro-1H-isoindol-5-ylamino]-5-nitro-benzoic acid], for which the IC50 is 7 µM and 2.2 µM and 2 µM.

On to `O=C(O)c1ccccc1Nc1ccc2c(c1)CN(c1cccc(F)c1)C2` [Example 22, 2-[2-(3-Fluoro-phenyl)-2,3-dihydro-1H-isoindol-5-ylamino]-benzoic acid], for which the IC50 is 10 µM and 3 µM (2×) and 6.5 µM and 8 µM.

Consider `O=C(O)c1cc(F)ccc1Nc1ccc2c(c1)CN(c1ccc(Cl)c(Cl)c1)C2` [Example 23, 2-[2-(3,4-Dichloro-phenyl)-2,3-dihydro-1H-isoindol-5-ylamino]-5-fluoro-benzoic acid], for which the 50% inhibitory concentration (IC50) is > 100 µM and 50 µM and 70 µM.

With `COc1cc(N2Cc3ccc(Nc4ccccc4C#N)cc3C2)cc(OC)c1OC` [Example 25, 2-[2-(3,4,5-Trimethoxy-phenyl)-2,3-dihydro-1H-isoindol-5-ylamino]-benzonitrile], the IC50 is over 100 µM.

For the compound `COc1cccc(N2Cc3ccc(Nc4ccccc4C(=O)O)cc3C2)c1` [Example 26, 2-[2-(3-Methoxy-phenyl)-2,3-dihydro-1H-isoindol-5-ylamino]-benzoic acid], the IC50 was over 100 µM.

Staying with this assay, now noted: read-out: BASSR IC50; 30 µM soluble Aβ (1-40) + 125I-labeled Aβ(1-40), 37°C, 3 to 5 hours; several values in a cell = repeat values; letter in parentheses = lot of compound (no letter = Lot P); (ppt), (v-shape) flags.
For the compound `O=C(O)c1ccccc1Nc1ccc2c(c1)CN(c1ccc(Cl)c(C(F)(F)F)c1)C2` [Example 10, 2-[2-(4-Chloro-3-trifluoromethylphenyl)-2,3-dihydro-1H-isoindol-5-ylamino]benzoic acid], the IC50 is 100 µM and 58 µM and 55 µM and 70 µM.

`O=C(O)c1cc([N+](=O)[O-])ccc1Nc1ccc2c(c1)CN(c1ccc(Cl)c(C(F)(F)F)c1)C2` [Example 19, 2-[2-(4-Chloro-3-trifluoromethyl-phenyl)-2,3-dihydro-1H-isoindol-5-ylamino]-5-nitro-benzoic acid]: the IC50 is 1.1 µM and 1 µM.
